Legend:
Type in all cases: in vivo
[1] = test system: Abutilon theophrasti (ABUTH, velvetleaf); assay: Pre-emergence herbicidal evaluation; conditions: 3 weeks after treatment
Description: (§1) The pre-emergence herbicidal activity of the compounds of the present invention is exemplified by the following test in which the seeds of a variety of monocotyledonous and dicotyledonous plants are seperately mixed with potting soil and planted on top of approximately one inch of soil in separate post. After planting, the pots are sprayed with the selected aqueous acetone solution. containing test compound in sufficient quantity to provide the equivalent of about 0.025 to 0.4 kg per hectare of test compound per pot. The treated pots are then placed on greenhouse benches, watered and cared for in accordance with conventional greenhouse procedures. From 3 weeks after treatment, the tests are terminated and each pot is examined and rated according to the rating system set forth below. [table] [table]

[2] = test system: Alopecurus myosuroides (ALOMY, black grass); assay: Pre-emergence herbicidal evaluation; conditions: 3 weeks after treatment
Description: as §1

[3] = test system: Echinochloa grus galli (ECHCG, barnyard grass); assay: Pre-emergence herbicidal evaluation; conditions: 3 weeks after treatment
Description: as §1

[4] = test system: Galium aparine (GALAP, cleaver); assay: Pre-emergence herbicidal evaluation; conditions: 3 weeks after treatment
Description: as §1

[5] = test system: Ipomoea hederacea (IPOHE, morning glory); assay: Pre-emergence herbicidal evaluation; conditions: 3 weeks after treatment
Description: as §1

[6] = test system: Matricaria inodora (MATIN, mayweed); assay: Pre-emergence herbicidal evaluation; conditions: 3 weeks after treatment
Description: as §1

[7] = test system: Setaria viridis (SETVI, green foxtail); assay: Pre-emergence herbicidal evaluation; conditions: 3 weeks after treatment
Description: as §1

[8] = test system: Stellaria media (STEME, chickweed); assay: Pre-emergence herbicidal evaluation; conditions: 3 weeks after treatment
Description: as §1

[9] = test system: Glycine max (GLXMA, soyabeans); assay: Pre-emergence herbicidal evaluation (crop); conditions: 3 weeks after treatment
Description: as §1

[10] = test system: Triticum aestivum (TRZAW, winter wheat); assay: Pre-emergence herbicidal evaluation (crop); conditions: 3 weeks after treatment
Description: as §1

Zea mays (ZEAMX, maize) = assay: Pre-emergence herbicidal evaluation (crop); conditions: 3 weeks after treatment
Description: as §1

[11] = test system: Abutilon theophrasti (ABUTH, velvetleaf); assay: Post-emergence herbicidal evaluation; conditions: 3 weeks after treatment
Procedure: (§2) These acetone solutions are diluted with water and the resulting formulations applied at dosage levels equivalent of about 0.025 to 0.4 kg per hectare of test compound per pot. After spraying the plants are placed on greenhouse benches and are cared for in the usual manner, commensurate with conventional greenhouse practices. From 3 weeks after treatment, the seedling plants are examined and rated according to the rating system provided above. A rating 0 indicates growth as untreated control, a rating 9 indicates death.

[12] = test system: Alopecurus myosuroides (ALOMY, black grass); assay: Post-emergence herbicidal evaluation; conditions: 3 weeks after treatment
Procedure: as §2

[13] = test system: Dolium multiflorum (LOLMU, ryegrass); assay: Post-emergence herbicidal evaluation; conditions: rate 0.100 kg/ha, 3 weeks after treatment
Procedure: as §2

[14] = test system: Echinochloa grus galli (ECHCG, barnyard grass); assay: Post-emergence herbicidal evaluation; conditions: 3 weeks after treatment
Procedure: as §2

[15] = test system: Galium aparine (GALAP, cleaver); assay: Post-emergence herbicidal evaluation; conditions: 3 weeks after treatment
Procedure: as §2

[16] = test system: Ipomoea hederacea (IPOHE, morning glory); assay: Post-emergence herbicidal evaluation; conditions: 3 weeks after treatment
Procedure: as §2

[17] = test system: Matricaria inodora (MATIN, mayweed); assay: Post-emergence herbicidal evaluation; conditions: 3 weeks after treatment
Procedure: as §2

[18] = test system: Setaria viridis (SETVI, green foxtail); assay: Post-emergence herbicidal evaluation; conditions: 3 weeks after treatment
Procedure: as §2

[19] = test system: Stellaria media (STEME, chickweed); assay: Post-emergence herbicidal evaluation; conditions: 3 weeks after treatment
Procedure: as §2

Cc1cc(OCCSC(F)(F)F)nc(Oc2ccnc(C(F)(F)F)c2)c1 [Example 51]
9 (9 - Complete kill): ABUTH rating ([1]; rate 0.025 kg/ha) | ABUTH rating ([1]; rate 0.100 kg/ha) | ABUTH rating ([1]; rate 0.400 kg/ha) | ECHCG rating ([3]; rate 0.100 kg/ha) | ECHCG rating ([3]; rate 0.400 kg/ha) | IPOHE rating ([5]; rate 0.025 kg/ha) | IPOHE rating ([5]; rate 0.100 kg/ha) | IPOHE rating ([5]; rate 0.400 kg/ha) | MATIN rating ([6]; rate 0.100 kg/ha) | MATIN rating ([6]; rate 0.400 kg/ha) | SETVI rating ([7]; rate 0.400 kg/ha) | STEME rating ([8]; rate 0.025 kg/ha) | STEME rating ([8]; rate 0.100 kg/ha) | STEME rating ([8]; rate 0.400 kg/ha) | ECHCG rating ([14]; rate 0.025 kg/ha) | ECHCG rating ([14]; rate 0.100 kg/ha) | ECHCG rating ([14]; rate 0.400 kg/ha) | GALAP rating ([15]; rate 0.100 kg/ha) | GALAP rating ([15]; rate 0.400 kg/ha) | IPOHE rating ([16]; rate 0.025 kg/ha) | IPOHE rating ([16]; rate 0.100 kg/ha) | IPOHE rating ([16]; rate 0.400 kg/ha) | SETVI rating ([18]; rate 0.100 kg/ha) | SETVI rating ([18]; rate 0.400 kg/ha) | STEME rating ([19]; rate 0.100 kg/ha) | STEME rating ([19]; rate 0.400 kg/ha)
7 (7 - Good herbicidal effect): ECHCG rating ([3]; rate 0.025 kg/ha) | ABUTH rating ([11]; rate 0.025 kg/ha) | ALOMY rating ([12]; rate 0.100 kg/ha)
6 (6 - Herbicidal effect): GLXMA rating ([9]; rate 0.400 kg/ha) | TRZAW rating ([10]; rate 0.400 kg/ha) | GALAP rating ([15]; rate 0.025 kg/ha) | MATIN rating ([17]; rate 0.100 kg/ha)
3 (3 - Moderate effect): ZEAMX rating (Zea mays (ZEAMX, maize); rate 0.025 kg/ha)
8 (8 - Approaching complete kill): ALOMY rating ([2]; rate 0.025 kg/ha) | ALOMY rating ([2]; rate 0.100 kg/ha) | ALOMY rating ([2]; rate 0.400 kg/ha) | GALAP rating ([4]; rate 0.025 kg/ha) | GALAP rating ([4]; rate 0.100 kg/ha) | GALAP rating ([4]; rate 0.400 kg/ha) | MATIN rating ([6]; rate 0.025 kg/ha) | SETVI rating ([7]; rate 0.025 kg/ha) | SETVI rating ([7]; rate 0.100 kg/ha) | ABUTH rating ([11]; rate 0.100 kg/ha) | ABUTH rating ([11]; rate 0.400 kg/ha) | ALOMY rating ([12]; rate 0.400 kg/ha) | LOLMU rating [13] | MATIN rating ([17]; rate 0.400 kg/ha) | SETVI rating ([18]; rate 0.025 kg/ha) | STEME rating ([19]; rate 0.025 kg/ha)
4 (4 - Injury): GLXMA rating ([9]; rate 0.025 kg/ha) | TRZAW rating ([10]; rate 0.100 kg/ha) | ZEAMX rating (Zea mays (ZEAMX, maize); rate 0.100 kg/ha) | ALOMY rating ([12]; rate 0.025 kg/ha) | MATIN rating ([17]; rate 0.025 kg/ha)
5 (5 - Definite injury): GLXMA rating ([9]; rate 0.100 kg/ha) | ZEAMX rating (Zea mays (ZEAMX, maize); rate 0.400 kg/ha)
2 (2 - Slight effect): TRZAW rating ([10]; rate 0.025 kg/ha)

— patent US6534447B1, “Herbicidal pyridine compounds” (BASF Aktiengesellschaft, priority 1999, dated 2003)
